{"source": "patent US9969766B2", "about": "“20(R)-ginsenoside Rg3 polyacylated derivatives, preparation and application thereof” (priority 2014, dated 2018)", "key": {"[1]": {"tested_on": "human stomach cancer MGC cells", "assay": "Human stomach cancer MGC in-situ inoculation, survival", "conditions": "for Animal body weight (g) Start / Animal body weight (g) end / Average survival (d) X ± SD / Life extension rate T/C × %: po × 14bid", "from_the_text": "(§1) human breast cancer Bcap-37 model, human lung cancer A549 model, human intestinal cancer LOVO model, human stomach cancer MGC model and human liver cancer QGY model, with tumor cell lines being of the second generation or more, mouse B16 melanoma cell line, mouse Lewis lung cancer model, mouse sarcoma s180 model, all passaged and preserved in Pharmacological Division of Shanghai Institute of Pharmaceutical Industry. 3. Experiment Animals Origins: nude mice, 6-week old, 18-22 g/mouse, provided by Laboratory Animal Center of Chinese Academy of Sciences, Shanghai Branch, with certification No. 2001A032. C57BL/6 mice and Kunming mice, 18-22 g/mouse, provided by Laboratory Animal Center of Chinese Academy of Sciences, Shanghai Branch, with certification SYXK (Shanghai) 2004-0015. Gender: male or female, the same gender for each batch in experiment Animal numbers: 10 mice and 10 nude mice for each of positive control group and test group in experiment, and 20 for negative control group. 4. Experiment Design Dose Settings: doses for 20(R)-ginsenoside Rg3 octo-acetate, 20(R)-ginsenoside Rg3 octo-n-butyrate and 20(R)-ginsenoside Rg3 octo-n-propionate were set as high-dose group (0.3 mg/kg/d), medium-dose group (0.06 mg/kg/d), and low-dose group (0.012 mg/kg/d). Dosage regimen: oral administration, twice daily. human tumor model and cell-inoculated mouse model: po×14 bid; mouse tumor-inoculated model: po×10 bid. Control Trial: negative control group: given with the same volume of 5% CMC-Na as the test group, and the same dosage regimen as the test group. positive control group: Cyclophosphamide CTX 30 mg/kg, MMC 2 mg/kg and 5Fu 30 mg/kg by intraperitoneal or intravenous administration, once daily, for seven consecutive days. 5. Experiment Method and Key Steps 5.1 Anti-Tumor Test 5.1.1 Subcutaneous Inoculation Model"}, "[2]": {"assay": "Solubility of the isolated products", "type": "physicochemical"}, "[3]": {"tested_on": "human lung cancer A549 cells", "assay": "Human lung cancer A549 (subcutaneous inoculation) metastasis model", "conditions": "po × 14bid"}, "[4]": {"tested_on": "human intestinal cancer LOVO cells", "conditions": "po × 14bid", "from_the_text": "as §1, with “MMC 2 mg/kg and 5Fu 30 mg/kg by intraperitoneal or intravenous administration, once daily, for seven consecutive days.” left out\nLOVO intestinal cancer cells (cultured in vitro) of logarithmic growth stage were taken under sterile condition and prepared into cell suspensions of about 1.8×10^7/ml using RPMI1640 culture medium as diluent. The nude mice were subjected to general anesthesia and cut in belly after routine disinfection to belly skin, the spleens were taken out and inoculated with LOVO intestinal cancer cell suspensions (0.05 ml/mouse) and then restored, the incisions were sutured, and the mice were placed in the cages and then put in the laminar flow rack."}, "[5]": {"tested_on": "human liver cancer QGY cells", "assay": "Human liver cancer QGY liver in-situ inoculation, survival", "conditions": "po × 14bid", "from_the_text": "as §1\nUnder sterile condition, the in vivo passage of the second generation of QGY tumor source of vigorous growth stage was prepared into cell suspensions of about 1-2×10^7/ml by homogenization (1:6), and the homogenates were filtered using 100-mesh stainless steel screen, getting ready for use. The nude mice were disinfected routinely and anaesthetized and cut at the xiphoid in the middle of the abdominal cavity to expose the liver, the cell suspensions (0.05 ml) were injected into liver parenchyma using imported 28 ga ½ ml syringes, the abdominal cavity was closed and then sutured layer by layer. The nude mice were fed in the laminar flow rack, with all the feed, packing, cage and contact instruments being sterilized under high pressure before use."}, "mouse sarcoma S180 cells": {"tested_on": "mouse sarcoma S180 cells", "assay": "Mouse sarcoma S180 metastasis model", "conditions": "po × 14bid", "from_the_text": "as §1"}}, "note": "Where two headings read alike, the source gives them in different places."}
{"smiles": "CC(=O)OC[C@H]1O[C@@H](OC2CC[C@]3(C)C(CC[C@@]4(C)C3C[C@H](OC(C)=O)C3C([C@@](C)(O)CCC=C(C)C)CC[C@@]34C)C2(C)C)[C@H](OC2O[C@H](COC(C)=O)[C@@H](OC(C)=O)[C@H](OC(C)=O)[C@H]2OC(C)=O)[C@@H](OC(C)=O)[C@@H]1OC(C)=O", "note": "(stereo partly drawn) [Rg3-octo-acetate, 20 (R)-ginsenoside Rg3 octaacetate]", "values": [{"measurement": "Animal body weight (g) Start", "setting": "[1]; 0.012 mg/kg/d", "value": 19.8, "unit": "g"}, {"measurement": "Animal body weight (g) end", "setting": "[1]; 0.012 mg/kg/d", "value": 25.4, "unit": "g"}, {"measurement": "Average survival (d) X ± SD", "setting": "[1]; 0.012 mg/kg/d", "value": "38.84 ± 0.14", "unit": "days"}, {"measurement": "Life extension rate T/C × %", "setting": "[1]; 0.012 mg/kg/d", "value": 170.56, "unit": "%"}, {"measurement": "Animal body weight (g) Start", "setting": "[1]; 0.06 mg/kg/d", "value": 19.6, "unit": "g"}, {"measurement": "Animal body weight (g) end", "setting": "[1]; 0.06 mg/kg/d", "value": 24.6, "unit": "g"}, {"measurement": "Average survival (d) X ± SD", "setting": "[1]; 0.06 mg/kg/d", "value": "41.21 ± 0.11", "unit": "days"}, {"measurement": "Life extension rate T/C × %", "setting": "[1]; 0.06 mg/kg/d", "value": 180.98, "unit": "%"}, {"measurement": "Animal body weight (g) Start", "setting": "[1]; 0.3 mg/kg/d", "value": 19.7, "unit": "g"}, {"measurement": "Animal body weight (g) end", "setting": "[1]; 0.3 mg/kg/d", "value": 24.1, "unit": "g"}, {"measurement": "Average survival (d) X ± SD", "setting": "[1]; 0.3 mg/kg/d", "value": "46.04 ± 0.12", "unit": "days"}, {"measurement": "Life extension rate T/C × %", "setting": "[1]; 0.3 mg/kg/d", "value": 202.19, "unit": "%"}, {"measurement": "life-prolonging effect versus positive control group", "setting": "[1]; high-dose groups, summary of Table 7-9: human stomach, intestinal and liver cancer", "value": "better than the positive control group"}, {"measurement": "Solubility in ethanol", "setting": "[2]; ethanol", "value": "soluble"}, {"measurement": "Solubility in water", "setting": "[2]; water", "value": "soluble"}, {"measurement": "Anti-metastasis rate %", "setting": "[3]; 0.012 mg/kg/d", "value": 49.91, "unit": "%"}, {"measurement": "Lung clone numbers (mice) X ± SD", "setting": "[3]; 0.012 mg/kg/d", "value": "0.96 ± 0.12"}, {"measurement": "Anti-metastasis rate %", "setting": "[3]; 0.06 mg/kg/d", "value": 57.90, "unit": "%"}, {"measurement": "Lung clone numbers (mice) X ± SD", "setting": "[3]; 0.06 mg/kg/d", "value": "0.81 ± 0.15"}, {"measurement": "Anti-metastasis rate %", "setting": "[3]; 0.3 mg/kg/d", "value": 68.52, "unit": "%"}, {"measurement": "Lung clone numbers (mice) X ± SD", "setting": "[3]; 0.3 mg/kg/d", "value": "0.84 ± 0.13"}, {"measurement": "Average survival (d) X ± SD", "setting": "[4]; 0.012 mg/kg/d", "value": "24.59 ± 4.5", "unit": "days"}, {"measurement": "Life extension rate T/C × %", "setting": "[4]; 0.012 mg/kg/d", "value": 179.99, "unit": "%"}, {"measurement": "Average survival (d) X ± SD", "setting": "[4]; 0.06 mg/kg/d", "value": "25.80 ± 4.8", "unit": "days"}, {"measurement": "Life extension rate T/C × %", "setting": "[4]; 0.06 mg/kg/d", "value": 188.90, "unit": "%"}, {"measurement": "Average survival (d) X ± SD", "setting": "[4]; 0.3 mg/kg/d", "value": "31.50 ± 5.1", "unit": "days"}, {"measurement": "Life extension rate T/C × %", "setting": "[4]; 0.3 mg/kg/d", "value": 230.59, "unit": "%"}, {"measurement": "Animal body weight (g) Start", "setting": "[5]; 0.012 mg/kg/d", "value": 19.1, "unit": "g"}, {"measurement": "Animal body weight (g) end", "setting": "[5]; 0.012 mg/kg/d", "value": 25.2, "unit": "g"}, {"measurement": "Average survival (d) X ± SD", "setting": "[5]; 0.012 mg/kg/d", "value": "37.26 ± 4.5", "unit": "days"}, {"measurement": "Life extension rate T/C × %", "setting": "[5]; 0.012 mg/kg/d", "value": 159.58, "unit": "%"}, {"measurement": "Animal body weight (g) Start", "setting": "[5]; 0.06 mg/kg/d", "value": 19.1, "unit": "g"}, {"measurement": "Animal body weight (g) end", "setting": "[5]; 0.06 mg/kg/d", "value": 24.3, "unit": "g"}, {"measurement": "Average survival (d) X ± SD", "setting": "[5]; 0.06 mg/kg/d", "value": "38.90 ± 4.1", "unit": "days"}, {"measurement": "Life extension rate T/C × %", "setting": "[5]; 0.06 mg/kg/d", "value": 166.59, "unit": "%"}, {"measurement": "Animal body weight (g) Start", "setting": "[5]; 0.3 mg/kg/d", "value": 19.3, "unit": "g"}, {"measurement": "Animal body weight (g) end", "setting": "[5]; 0.3 mg/kg/d", "value": 24.8, "unit": "g"}, {"measurement": "Average survival (d) X ± SD", "setting": "[5]; 0.3 mg/kg/d", "value": "42.49 ± 5.0", "unit": "days"}, {"measurement": "Life extension rate T/C × %", "setting": "[5]; 0.3 mg/kg/d", "value": 181.98, "unit": "%"}, {"measurement": "Anti-metastasis rate %", "setting": "mouse sarcoma S180 cells; 0.012 mg/kg/d", "value": 51.50, "unit": "%"}, {"measurement": "Lung clone numbers (mice) X ± SD", "setting": "mouse sarcoma S180 cells; 0.012 mg/kg/d", "value": "1.43 ± 7.1"}, {"measurement": "Anti-metastasis rate %", "setting": "mouse sarcoma S180 cells; 0.06 mg/kg/d", "value": 65.80, "unit": "%"}, {"measurement": "Lung clone numbers (mice) X ± SD", "setting": "mouse sarcoma S180 cells; 0.06 mg/kg/d", "value": "1.01 ± 7.2"}, {"measurement": "Anti-metastasis rate %", "setting": "mouse sarcoma S180 cells; 0.3 mg/kg/d", "value": 78.94, "unit": "%"}, {"measurement": "Lung clone numbers (mice) X ± SD", "setting": "mouse sarcoma S180 cells; 0.3 mg/kg/d", "value": "0.62 ± 7.3"}]}
